Results published in ChEMBL document CHEMBL4513151, “CO-ADD screening of Institut Català d'Investigació Química (Spain) compounds”.
Converted amounts (≈) assume the structure as drawn.

How the values were obtained:
HEK293 = assay: cells; format: functional; conditions: Homo sapiens, ATCC CRL1573, HEK293; ASSAY_TEST Inhibition of Cell Viability; detection method Resazurin; Fluorescence (ex560/em590); MEDIA DMEM with 10% FBS; plate type 384well; TC; CORNING #3712; time 18 hr
Staphylococcus aureus = assay: microbe, parasite or virus in culture; conditions: ATCC 43300, 18 h, ASSAY_TEST Inhibition of Bacterial Growth, detection method Absorption (OD600), MEDIA CAMHB, plate type 384well, NBS, CORNING #3640
Description: Antibacterial activity against Staphylococcus aureus MRSA ATCC 43300 (CO-ADD:GP_020); MIC in CAMBH media, using NBS plates, by OD(600)

Escherichia coli = assay: microbe, parasite or virus in culture; conditions: ATCC 25922, 18 h, ASSAY_TEST Inhibition of Bacterial Growth, detection method Absorption (OD600), MEDIA CAMHB, plate type 384well, NBS, CORNING #3640
Description: Antibacterial activity against Escherichia coli ATCC 25922 (CO-ADD:GN_001); MIC in CAMBH media using NBS plates, by OD(600)

Klebsiella pneumoniae = assay: microbe, parasite or virus in culture; conditions: ATCC 700603, 18 h, ASSAY_TEST Inhibition of Bacterial Growth, detection method Absorption (OD600), MEDIA CAMHB, plate type 384well, NBS, CORNING #3640
Description: Antibacterial activity against Klebsiella pneumoniae MDR ATCC 70063 (CO-ADD:GN_003); MIC in CAMBH media using NBS plates, by OD(600)

Pseudomonas aeruginosa = assay: microbe, parasite or virus in culture; conditions: ATCC 27853, 18 h, ASSAY_TEST Inhibition of Bacterial Growth, detection method Absorption (OD600), MEDIA CAMHB, plate type 384well, NBS, CORNING #3640
Description: Antibacterial activity against Pseudomonas aeruginosa ATCC 27853 (CO-ADD:GN_042); MIC in CAMBH media using NBS plates, by OD(600)

Acinetobacter baumannii = assay: microbe, parasite or virus in culture; conditions: ATCC 19606, 18 h, ASSAY_TEST Inhibition of Bacterial Growth, detection method Absorption (OD600), MEDIA CAMHB, plate type 384well, NBS, CORNING #3640
Description: Antibacterial activity against Acinetobacter baumannii ATCC 19606 (CO-ADD:GN_034); MIC in CAMBH media using NBS plates, by OD600

Candida albicans = assay: microbe, parasite or virus in culture; conditions: ATCC 90028, ASSAY_TEST Inhibition of Fungal Growth, detection method Absorption (OD530), plate type 384well, NBS, CORNING #3640
Description: Antifungal activity against Candida albicans ATCC 90028 (CO-ADD:FG_001); MIC in YNB media using NBS plates, by OD630

Description for Cryptococcus neoformans: Antifungal activity against Cryptococcus neoformans H99 ATCC 208821 (CO-ADD:FG_002); MIC in YNB media using NBS plates, by Resazurin OD(600-570)

- MIC (Cryptococcus neoformans): > 32 µg/mL
- MIC (Staphylococcus aureus): 32 µg/mL (≈ 118 µM)
- MIC (Escherichia coli): > 32 µg/mL
- MIC (Klebsiella pneumoniae): > 32 µg/mL
- MIC (Pseudomonas aeruginosa): > 32 µg/mL
- MIC (Acinetobacter baumannii): > 32 µg/mL
- MIC (Candida albicans): > 32 µg/mL
SMILES: C[C@]12CC[C@@H](O1)[C@H]1C=C[C@H](OC(=O)c3ccccc3)[C@H]12
- CC50 (HEK293): > 32 µg/mL
